Measured values published in paper PMC5430962, “Retro-inverso Urokinase Receptor Antagonists for the Treatment of Metastatic Sarcomas” (Scientific Reports, 2017).
[ ]: non-standard residue; d: D form. Aib = CC(C)(N)C(=O)O

What was measured:
Sarc cells = test: Growth, vascularization and circulating tumor cells of subcutaneous Sarc tumors in nude mice; assay type: in vivo, Foxn1nu/nu female nude mice; settings: 6 mg/Kg i.p. every day for 10 days
Description: To evaluate the effect of RI-3 on tumor growth and vascularization, Sarc cells were injected, as a single-cell suspension (1 × 10^6 cells in 100 µl of sterile PBS, 97% viability), subcutaneously in the flanks of sixteen six-eight weeks old, Foxn1nu/nu female nude mice (Harlan). Animals were randomized into two 8-mice groups with the treatment group receiving 6 mg/kg RI-3 by intra-peritoneal injection every 24 hr, and the control group receiving an equivalent injected volume of vehicle (PBS) only. Time-dependent average weight was monitored every two days. The length and the width of tumors were measured at different time points with a calliper and volumes were calculated using the formula: ½ × (width)[2] × length (mm). After 10 days, blood samples (at least 500 µL/mouse) from the retro-orbital venous plexus of mice anesthetized with 1% isoflurane were collected using a heparinized capillary tube and processed for determination of the Circulating Tumor Cells (CTCs). Then, the animals were sacrificed, the excised tumors were fixed in buffered formalin and processed for paraffin sectioning. Tumor vascularization was assessed by counting vascular channels harbouring red blood cells on CD31 immuno-stained sections in 5 randomly chosen fields per section, in at least two sections per tumor at x 200 as described. Two additional experiments were carried out with the same experimental design by injecting GFP-tagged Sarc cells (1 × 10^6 cells/mouse) subcutaneously in the flanks of twenty-five six-eight weeks old, Foxn1nu/nu female nude mice (Harlan). Animals were treated with 6 mg/kg RI-3, 6 mg/kg RERF or vehicle by intra-peritoneal injection every 24 hr for 10 or 12 days. Tumor growth and the appearance of positive tumor lesions near tumors and in lungs were monitored as brightly visualized by GFP fluorescence with a MacroFluo fluorescence stereomicroscope (Leica). We searched for the presence of GFP-positive nodules on the entire surface of freshly isolated lungs. Lungs were also sliced at approximately 3-mm thickness to examine the parenchyma in depth, and the positive nodules were acquired at higher magnification.
To quantify CTCs, DNA from nucleated cells of murine blood samples (500 μl/mouse) was extracted using the QIAamp DNA Mini Kit (Qiagen), according to the manufacturer’s protocol. Quantitative RT-PCR (7900 HT Fast Real-Time PCR System, Applied Biosystems) was performed using 18 ng DNA and the SYBR Select Master Mix (Applied Biosystems) as described. Primers to human Alu-sequences [FW 5′-[…]-3′/RV 5′-CCCAGGCTGGAGTGCAGT-3′] were employed to a final concentration of 0.5 μM. The number of CTCs was calculated by comparing the obtained Ct with a standard amplification curve generated in spiking experiments (1 to 50 cells were collected by pipetting under microscopic control) which were included in every run. DNA from murine blood was included as a negative control.

[1] = Stability in human serum, read out as retained inhibition of HT1080 matrigel invasion; assay type: in vitro ADME; settings: pre-incubated at 10^−3 M in human serum 18 hr at 37 °C; tested at 10 nM on HT1080 matrigel invasion, Boyden chambers, 6 hr; three experiments in triplicate
Description: A major limitation of peptides for use as therapeutics is susceptibility to degradation by serum proteases. The stability of RI-3 in bovine and human serum was investigated by comparing inhibitory activities of RI-3 and RI-3 pre-incubated at 10^−3 M with serum for 18 hr at 37 °C on cell migration and invasion. HT1080 cells were allowed to migrate for 18 hr toward DMEM (CTRL), 10% FBS (None), 10% FBS plus 10 nM RI-3 or 10% FBS with 10 nM RI-3 pre-incubated in bovine serum. […] The stability of RI-3 in human serum was investigated in cell invasion experiments performed in Boyden chambers. […]
(a) HT1080 cells were allowed to migrate in real time for 18 hr toward DMEM (CTRL), or 10% FBS in the absence (None) or the presence of 10 nM RI-3 or 10 nM RI-3 pre-incubated at 10^−3 M in bovine serum for 18 hr at 37 °C. […] The basal value assessed in the absence of FBS (CTRL) was taken as 100% and all values were reported relative to that. Data are the means ± SD three independent experiments, performed in triplicate. *Indicates statistical significance calculated against None, with *P < 0.05, **P < 0.0001. (c) Cell proliferation of HT1080 cells assessed by MTS assay. […] At the indicated times, the absorbance of adherent cells was assessed with a microplate reader. […]

Question: For “Ac-[dY][dR][Aib][dR]-NH2 (SMILES CC(=O)N[C@H](Cc1ccc(O)cc1)C(=O)N[C@H](CCCNC(=N)N)C(=O)NC(C)(C)C(=O)N[C@H](CCCNC(=N)N)C(N)=O) [RI-3]”, which “intra-tumoral microvessel density (CD31) vs vehicle-treated mice” value (Sarc cells) is on record?
Answer: Its value is “a reduced microvessel density”.

Question: And the “treated mice in which no CTCs were detected” value (Sarc cells)?
Answer: The value was 4/8.

Question: And the “body weight vs vehicle-treated mice” value (Sarc cells; eight mice)?
Answer: Its value is “comparable”.

Question: And the “volume of tumors after 10 days” value (Sarc cells; eight mice, vehicle 330 +/− 163)?
Answer: The value was 185 +/− 82 mm^3.

Question: What about the “circulating tumor cells in blood of CTC-positive mice” value (Sarc cells; Alu Real-Time PCR, vehicle 10.04 +/− 3.7 in 8/8 mice) of the same substance?
Answer: The value was 2.6 +/− 2.7 CTCs/mL.

Question: What about the “inhibitory activity retained after pre-incubation with human serum” value [1] of the same substance?
Answer: Its value is 81%.
